In US20050158709A1, “Methods for determinging the influence of protein binding on antiretroviral activity” (priority 2002, published 2005):
Read-outs that look alike come from different tables or passages of the source.

How the values were obtained:
wild type HIV-1 (LAI) = test: Cell-based antiviral assay (MT4 cells, MTT method) in the presence of human plasma or serum proteins, wild type HIV-1; details: for ratio between EC50 in presence of indicated protein and EC50 in presence of 10% FCS: HS 50% / ratio between EC50 in presence of indicated protein and EC50 in presence of 10% FCS: AAG 1 mg/mL / ratio between EC50 in presence of indicated protein and EC50 in presence of 10% FCS: FCS (10%) / ratio between EC50 in presence of indicated protein and EC50 in presence of 10% FCS: HSA 45 mg/mL: wild type HIV-1 (LAI), median of at least two determinations; for ratio between EC50 in presence of indicated protein and EC50 in presence of 10% FCS: HS 50%: 50% human serum; for ratio between EC50 in presence of indicated protein and EC50 in presence of 10% FCS: AAG 1 mg/mL: AAG 1 mg/mL and 10% FCS; for ratio between EC50 in presence of indicated protein and EC50 in presence of 10% FCS: FCS (10%): FCS 10% (reference); for ratio between EC50 in presence of indicated protein and EC50 in presence of 10% FCS: HSA 45 mg/mL: HSA 45 mg/mL and 10% FCS
Protocol: (§1) The influence of AAG, Human Serum Albumin (HSA) or Human Serum (HS) on the activity of antiretrovirals was measured in a cell-based antiviral assay. A phenotypic assay was performed to measure the ability of resistant virus strains to grow in the presence of each drug of interest, and in the presence of various combinations of plasma or serum proteins at different concentrations: • 50% heat-inactivated human serum (HS) with or without 10% fetal calf serum (FCS) • 1 mg/mL AAG and 10% FCS • 45 mg/mL human serum albumin (HSA) and 10% FCS
(§2) Anti-HIV activity was determined in HIV-or mock-infected MT4 cells by the MTT method as described by Pauwels et al (1988), J.Virol.Meth.20:[…], and Hertogs et al (1998), Antimicrob.Ag.Chemother.42:269-27. Briefly, recombinant or non-recombinant virus, with a specific resistance profile, were grown in cell culture to obtain viral stocks of known concentration. Susceptibility testing of the viral stocks in the presence of various antiviral agents and in the presence of plasma or serum proteins, and a detection system based on MTT determined to which extent agents inhibited replication of the virus strains.
(§3) Virus strains used for these studies had different origins: • HIV strains obtained by in vitro selection in the presence of various antivirals • Recombinant clinical isolates constructed according to the Antivirogram™ method as described by Hertogs et al (1998).

[1] = tested on: various HIV-1 strains (resistant strains); assay type: cell-based; details: for EC50 ratio (human plasma or serum protein vs 10% FCS), concentration range 50 nM-5 nM: EC50 50 nM-5 nM (in vitro testing concentrations, wild type HIV); for EC50 ratio (human plasma or serum protein vs 10% FCS), concentration range 500 nM-50 nM: strains with EC50 500 nM-50 nM (sub-therapeutic concentrations)
Protocol: as §1, §2, §3
Virus strains with various levels of resistance against each of the PIs were used in similar experiments with AAG.

LAI = test: EC50 against viral strain LAI; assay type: cell-based, HIV; details: Human immunodeficiency virus 1
Protocol: (§4) As an example, protease inhibitors have clinically relevant concentrations in a range of around 500 nM and more, sub-therapeutic concentrations in the range of around 50 nM to around 500 nM, and in vitro testing concentrations in the range of less than around or 50 nM.

R13273 = test: EC50 against viral strain R13273; assay type: cell-based, HIV; details: Human immunodeficiency virus 1
Protocol: as §4

R13485 = test: EC50 against viral strain R13485; assay type: cell-based, HIV; details: Human immunodeficiency virus 1
Protocol: as §4

R13025 = test: EC50 against viral strain R13025; assay type: cell-based, HIV; details: Human immunodeficiency virus 1
Protocol: as §4

R13127 = test: EC50 against viral strain R13127; assay type: cell-based, HIV; details: Human immunodeficiency virus 1
Protocol: as §4

R13028 = test: EC50 against viral strain R13028; assay type: cell-based, HIV; details: Human immunodeficiency virus 1
Protocol: as §4

R13036 = test: EC50 against viral strain R13036; assay type: cell-based, HIV; details: Human immunodeficiency virus 1
Protocol: as §4

HIV [2] = details: cited from earlier work
HIV [3] = details: extensive protein binding prevented intracellular diffusion; cited from earlier work
R13031 = test: EC50 against viral strain R13031; assay type: cell-based, HIV; details: Human immunodeficiency virus 1
Protocol: as §4

HIV [4] = details: in vitro; increasing AAG; cited from earlier work
R13020 = test: EC50 against viral strain R13020; assay type: cell-based, HIV; details: Human immunodeficiency virus 1
Protocol: as §4

T13127 = test: EC50 against viral strain T13127; assay type: cell-based, HIV; details: Human immunodeficiency virus 1
Protocol: as §4

T13025 = test: EC50 against viral strain T13025; assay type: cell-based, HIV; details: Human immunodeficiency virus 1
Protocol: as §4

[5] = protein not given, AAG, median of at least two determinations
[6] = strains with EC50 5 μM-500 nM (clinically relevant concentrations), protein not given, AAG, median of at least two determinations

Compound | ratio between EC50 in presence of indicated protein and EC50 in presence of 10% FCS: HS 50% (wild type HIV-1 (LAI)) | ratio between EC50 in presence of indicated protein and EC50 in presence of 10% FCS: AAG 1 mg/mL (wild type HIV-1 (LAI)) | ratio between EC50 in presence of indicated protein and EC50 in presence of 10% FCS: FCS (10%) (wild type HIV-1 (LAI)) | ratio between EC50 in presence of indicated protein and EC50 in presence of 10% FCS: HSA 45 mg/mL (wild type HIV-1 (LAI)) | EC50 ratio (human plasma or serum protein vs 10% FCS), concentration range 5 μM-500 nM [1] | EC50 ratio (human plasma or serum protein vs 10% FCS), concentration range 50 nM-5 nM [1, 5] | EC50 ratio (human plasma or serum protein vs 10% FCS), concentration range 500 nM-50 nM [1, 5] | EC50 (LAI) [nM] | EC50 (R13025) [nM] | other results
Cc1cccc(C)c1OCC(=O)N[C@@H](Cc1ccccc1)[C@@H](O)C[C@H](Cc1ccccc1)NC(=O)[C@H](C(C)C)N1CCCNC1=O [Lopinavir, lopinavir] | 5 | 26 | 1 | 5 | 4 | 64 | 20 | ~9 | – | EC50 (R13273): ~2000 nM; EC50 (R13485): ~367 nM
CC(C)CN(C[C@@H](O)[C@H](Cc1ccccc1)NC(=O)O[C@H]1CCOC1)S(=O)(=O)c1ccc(N)cc1 [amprenavir] | 12 | 25 | 1 | 2 | – | 38 | 14 | ~42 | ~412 | EC50 ratio (human plasma or serum protein vs 10% FCS), concentration range 5 μM-500 nM [1, 6]: 5; EC50 (R13127): ~2000 nM
Cc1c(O)cccc1C(=O)N[C@@H](CSc1ccccc1)[C@H](O)CN1C[C@H]2CCCC[C@H]2C[C@H]1C(=O)NC(C)(C)C [Nelfinavir, nelfinavir] | 25 | 31 | 1 | 7 | – | 11 | 9 | ~32 | – | EC50 ratio (human plasma or serum protein vs 10% FCS), concentration range 5 μM-500 nM [1, 6]: 5; EC50 (R13028): ~254 nM; EC50 (R13127): ~8000 nM; EC50 (R13036): ~1000 nM
CC(C)CN(C[C@@H](O)[C@H](Cc1ccccc1)NC(=O)[C@H](CC(N)=O)NC(=O)c1ccc2ccccc2n1)C(=O)NC(C)(C)C [SC-52151, telinavir] | – | – | – | – | – | – | – | – | – | antiretroviral activity in vitro (HIV [2]): potent; activity in vivo (clinical efficacy) (HIV [3]): insufficient
CC(C)c1nc(CN(C)C(=O)N[C@H](C(=O)N[C@@H](Cc2ccccc2)C[C@H](O)[C@H](Cc2ccccc2)NC(=O)OCc2cncs2)C(C)C)cs1 [Ritonavir, ritonavir] | – | – | – | – | – | – | – | ~36 | ~2000 | EC50 (R13031): ~407 nM
CC(C)(C)NC(=O)[C@@H]1CN(Cc2cccnc2)CCN1C[C@@H](O)C[C@@H](Cc1ccccc1)C(=O)N[C@H]1c2ccccc2C[C@H]1O [Indinavir, indinavir] | – | – | – | – | – | – | – | ~36 | ~2000 | effect of AAG and HS on potency against wild-type HIV-1 (wild type HIV-1 (LAI); wild-type HIV-1, presence of AAG and HS): unaffected; EC50 (R13028): ~261 nM
CC(C)[C@H](NC(=O)N(C)Cc1ccccn1)C(=O)N[C@@H](Cc1ccccc1)[C@H](O)[C@H](O)[C@H](Cc1ccccc1)NC(=O)[C@@H](NC(=O)N(C)Cc1ccccn1)C(C)C [A77003] | – | – | – | – | – | – | – | – | – | antiviral efficacy as the concentration of α1-acid glycoprotein (AAG) was increased (HIV [4]): decreased
CC(C)(C)NC(=O)[C@@H]1C[C@@H]2CCCC[C@@H]2CN1C[C@@H](O)[C@H](Cc1ccccc1)NC(=O)[C@H](CC(N)=O)NC(=O)c1ccc2ccccc2n1 [Saquinavir, saquinavir] | 5 | 5 | 1 | 3 | 3 | 5 | 4 | – | – | EC50 ratio (human plasma or serum protein vs 10% FCS), concentration range <5 nM [1]: 19; EC50 ratio (human plasma or serum protein vs 10% FCS), concentration range >5 μM [1]: 2; influence of AAG on the anti-HIV activity ([1]; different HIV-1 strains, AAG 1 mg/mL vs 10% FCS, FIG. 1): decreases with increasing inhibitor concentrations; EC50 (R13020): ~7000 nM; EC50 (T13127): ~710 nM; EC50 (T13025): ~166 nM
CC(C)CN(C[C@@H](O)[C@H](Cc1ccccc1)NC(=O)OC1CO[C@H]2OCC[C@@H]12)S(=O)(=O)c1ccc(N)cc1 (some centres unmarked) [compound 1] | – | – | – | – | 7 | 24 | 12 | – | – | EC50 ratio (human plasma or serum protein vs 10% FCS), concentration range <5 nM [1]: 85; EC50 ratio (human plasma or serum protein vs 10% FCS), concentration range >5 μM [1]: 4
